Laboratory results published in patent publication US7687546B2, “Quaternary ammonium compound, process for producing the same, therapeutic agent for cerebrovascular disorder, and therapeutic agent for heart disease” (Activus Pharma Co., Ltd., priority 2004, dated 2010).
Like-named read-outs stand apart in the source and are kept apart here.

Key:
[1] = system: middle cerebral artery occlusion and reperfusion model; assay: Cerebral infarction model: middle cerebral artery occlusion and reperfusion (infarct area, neurological symptoms, motor function); format: in vivo, rats (Crj: Wistar strain); set-up: Improvement of neurological symptoms* (total score): scale not given here; conditions: rats, average of 10 animals; for Improvement of neurological symptoms* (total score) / Improvement of motor function (time stayed on rotor rod: seconds): single i.v. dose 3 mg/kg; for Improvement of neurological symptoms* (total score): 24 hours after occlusion, total score per Table 4, smaller = greater effect; for Improvement of motor function (time stayed on rotor rod: seconds): rotor rod 14 rotations per minute, maximum 1 minute; for Cerebral infarction reduction rate (%): single intravenous dose 3 mg/kg immediately before reperfusion, vs physiological saline group, bigger = greater effect
Method: In this example, a cerebral infarction model was prepared using rats in which reperfusion injury was induced by ischemia and then reperfusion of the middle cerebral artery using the obturator method. The efficacy of compounds of the present invention following single-dose intravenous administration at dose of 3 mg/kg was evaluated in terms of infarct area, neurological symptoms and motor function.
In addition, Edaravone (trade name, Mitsubishi Pharma Corporation) was used as a reference compound. The compounds of the present invention were stored in a refrigerator under protection from light, while Edaravone (trade name) was stored at room temperature under protection from light.
Compounds of present invention: 2 mL of physiological saline was added directly to tube containing 3 mg aliquots of a compound of the present invention to dissolve and prepare solutions having a concentration of 3 mg/2 mL. These samples were prepared at the time of use.
Edaravone: Since Edaravone is an injectable solution having a concentration of 30 mg/20 mL, the required amounts were divided up and used.
Rats: Crj: Wistar strain, males, age 7 weeks (Charles River Laboratories Japan, Inc.)
The test compounds were administered in a single dose into the tail vein using a 1 mL syringe and 27 G injection needle immediately before the reperfusion.
The rats were anesthetized by intraperitoneal administration of sodium pentobarbital at dose of 40 mg/kg (Nembutal (trade name), Dainippon Pharmaceutical Co., Ltd.), and a middle cerebral artery occlusion and reperfusion model was prepared in accordance with the method of Koizumi et al. (Non-Patent Document 2). Namely, the animals were warmed to 37° C. and held in the dorsal position while breathing spontaneously. A midline cervical incision was made, and then the right external carotid artery and right internal carotid artery were separated without damaging the vagus nerve. The right common carotid artery and right external carotid artery were ligated, and a suture was attached to the origin of the internal carotid artery in preparation for ligation and maintenance of occlusion following insertion of an obturator into the internal carotid artery. Moreover, a small incision was made in the right common carotid artery, an obturator provided with an approximately 17 mm silicon-coated suture was inserted into the internal carotid artery, and the internal carotid artery was ligated. Two hours after ligation, the obturator was removed under unanesthesia to reperfuse. Furthermore, flexion of the contralateral forelimb was confirmed 30 minutes after occlusion of the middle cerebral artery.
The following neurological symptoms were evaluated 24 hours after occlusion of the middle cerebral artery according to the evaluation method of Petullo et al. (Non-Patent Document 3). Neurological symptoms consisted of flexion of the forelimbs, torso twisting, resistance when pushing on the back of the right or left shoulder (Lateral push), circling, return of the hindlimb to the floor when lifted from the floor (Hindlimb placement), behavior when the head is faced downward on an angle (Inverted angle board) and a locomotor activity test.
Flexion of the forelimbs: flexion of the forelimbs was observed when the animals were lifted up by the tail.
Torso twisting: Torso twisting was observed when the animals were lifted up by the tail.
Lateral push: Resistance was observed when pushing on the back of the right or left shoulder.
Hindlimb placement: The animals were observed as to whether or not the hindlimb immediately returns to the floor after being lifted from the floor when placed on a horizontal floor.
locomotor activity: locomotor activity was observed when the animals were placed in a polycarbonate cage.
The aforementioned tests were scored based on the criteria described in the following documents, followed by calculation of total scores (see Table 4 “Neurological Symptom Evaluation Criteria and Scores”). […]

[2] = system: ouabain-induced arrhythmia model; assay: Ouabain-induced arrhythmia model in guinea pigs; format: in vivo, guinea pigs (Hartley strain); conditions: dose 3 mg/kg i.v. immediately before ouabain infusion 3 μg/0.1 ml/min
Excerpt: After guinea pigs (Hartley strain, age 6 weeks) were anesthetized with urethane, induction electrodes were attached to the hind limbs and fore limbs, and standard 2-lead electrocardiograms were monitored with an animal electrocardiogram analysis system (ECG-01, Japan Energy). After confirming that the waveforms of the electrocardiogram and heart rate were within the normal range, an incision was made in the epidermis of the neck followed by inserting a breathing tube into the trachea and cannulating a polyethylene tube into the left external jugular vein and left common carotid artery.
Immediately after administering a compound of the present invention dissolved in a physiological saline solution into the right external jugular vein, ouabain was continuously infused at 3 μg/0.1 ml/min through the cannulated polyethylene tube into the left external jugular vein using a syringe pump (Atom Syringe Pump 1235 (trade name), Atom Medical Corporation).
In addition, the polyethylene tube cannulated in the left common carotid artery was connected to a pressure transducer (P23XL, Gould Electronics), and fed to a pressure processor signal conditioner (TA-11, Gould Electronics) to record blood pressure and heart rate on a thermal plate recorder.
The results were assessed by comparing the dose (μg/kg) of ouabain administered until the appearance of arrhythmia and occurrence of cardiac arrest (arrhythmia is not induced even if a large dose of ouabain is administered if antiarrhythmic effects are high). Furthermore, a solvent dose group (administered only physiological saline in an amount equal to that of the test drug groups), and a positive control group administered a typical antiarrhythmic disopyramide phosphate (physiological saline solution), were also provided.

[3] = system: model of myocardial ischemia reperfusion injury; assay: Model of myocardial ischemia-reperfusion injury in dogs; format: in vivo; conditions: 3 mg/kg into the femoral vein 10 minutes before 20 minutes coronary occlusion, then reperfusion
Method: In order to confirm the efficacy of compounds of the present invention on myocardial infarction and arrhythmia caused by myocardial infarction, a pharmacological study was conducted using a model of myocardial ischemia reperfusion injury in dogs for the compounds used in Example 1.
Dogs having body weights of approximately 10 kg were anesthetized with pentobarbital (trade name) (30 mg/ml/kg) followed by shaving the surgical site after starting artificial respiration. The femoral vein and femoral artery were separated followed by cannulation. The femoral vein was used as the administration route for the test substances, while the femoral artery was used to measure blood pressure.
Next, after opening the left chest, making an incision in the pericardium and exposing the left ventricle, the left coronary artery was separated. A silk suture was passed through the coronary artery to occlude, followed by the attachment of an electromagnetic flow meter probe for measuring blood flow.
In addition, a pair of ultrasound crystal probes was fixed in position to measure changes in ventricular wall length as a indicator of myocardial contractile force, and indwelling needle was installed for measuring left intraventricular pressure. Compounds of the present invention were administered into the femoral vein at 3 mg/kg (15% physiological saline solution) followed 10 minutes later by occluding the coronary artery for 20 minutes, and subsequently reperfusing the coronary artery. Myocardial contraction following ischemia-reperfusion was compared for each group based on a value of 100 for myocardial contraction prior to ischemic reperfusion. In addition, comparisons were also made with a solvent control group administered only physiological saline.

[4] = system: model of myocardial ischemia-reperfusion injury; assay: Model of myocardial ischemia-reperfusion injury in rats; format: in vivo; conditions: 3 mg/kg i.v. 5 minutes before 5 minutes coronary ligation, 8 rats per group; for Incidence of Ventricular Fibrillation (%) / Incidence of Ventricular Tachycardia (%): monitored 5 minutes after reperfusion; for Mortality Rate (%): then reperfusion
guinea pigs = conditions: guinea pig, in vivo

SMILES | Improvement of neurological symptoms* (total score) [1] | Improvement of motor function (time stayed on rotor rod: seconds) [1] [s] | Cerebral infarction reduction rate (%) [1] [%] | Ouabain (μg/kg) administered until Cardiac arrest [2] [µg/kg] | Ouabain (μg/kg) administered until appearance of Arrhythmia [2] [µg/kg] | Myocardial Contraction (%) (Based on a value of 100% for prior to ischemia-reperfusion) [3] | Incidence of Ventricular Fibrillation (%) [4] [%] | Incidence of Ventricular Tachycardia (%) [4] [%] | Mortality Rate (%) [4] [%] | Occurrence of Arrhythmia (guinea pigs; 3 mg/kg) | Occurrence of cardiac arrest (guinea pigs; 3 mg/kg) | Occurrence of Arrhythmia (guinea pigs; 10 mg/kg) | Occurrence of cardiac arrest (guinea pigs; 10 mg/kg)
C[N+](C)(C)CCOc1ccc(O)c(C(=O)[O-])c1 [Compound 9] | 5.95 | 51.6 | 51.5 | 245 | 170 | 78 | 25.0 | 75.0 | 12.5 | No | No | No | No
C[N+](C)(C)CCOc1cc(O)cc(C(=O)[O-])c1O [Compound 28] | 5.85 | 53.1 | 54.7 | 267 | 173 | 76 | 12.5 | 62.5 | 12.5 | No | No | No | No
C[N+](C)(C)CCOc1cc(C(=O)[O-])c(O)cc1O [Compound 30] | 6.50 | 51.4 | 42.9 | 247 | 173 | 77 | 12.5 | 62.5 | 12.5 | No | No | No | No
C[N+](C)(C)CCOc1cc(C(=O)[O-])cc(O)c1O [Compound 31] | 5.25 | 60.0 | 65.3 | 259 | 179 | 89 | 0 | 37.5 | 0 | No | No | No | No
C[N+](C)(C)CCOc1ccc(C(=O)[O-])c(O)c1O [Compound 32] | 5.65 | 53.5 | 55.4 | 243 | 176 | 79 | 12.5 | 50.0 | 12.5 | No | No | No | No
CC1=NN(c2ccccc2)C(=O)C1 [Edaravone, reference compound] | 6.10 | 42.6 | 37.3 |  |  |  |  |  |  |  |  |  | 
CCN(CC)CC(=O)Nc1c(C)cccc1C [Lidocaine, lidocaine, reference compound] |  |  |  |  |  |  | 12.5 | 62.5 | 12.5 |  |  |  | 
